Measurements published in patent US11247965B2 (VenatoRx Pharmaceuticals, Inc., priority 2017, dated 2022).

Experiments:
[1] = In vitro cytotoxicity, MTT cell viability assay in HepG2 cells; assay type: cell-based; settings: human, Cytotoxicity CC50
How it was run: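 Read-out: MTT formazan absorbance at 492 nm, expressed as % of vehicle signal; CC50 by 4-parameter non-linear regression. Parental HepG2, 20,000 cells/well, treated 7 days with compound from 30 μM down to 1.0 nM.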

[2] = tested on: HBV replication in HepAD38 cells; experiment: Anti-HBV activity in HepAD38 cells, extracellular HBV DNA by QPCR; assay type: cell-based, HBV (genotype D, serotype ayw); settings: Hepatitis B virus, HePAD38, 168 h, read-out: Anti-HBV EC50, HepAD38 cells, extracellular HBV DNA by QPCR, 7 days of incubation
How it was run: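 HepAD38 cells (HepG2 with tet-repressible HBV genotype D genome) seeded overnight, tetracycline removed, then treated 7 days with compounds (half-log dilutions, 30 μM–10 nM; 1:200 from DMSO). Supernatant HBV DNA quantified by QPCR against standard curve; % inhibition vs vehicle, EC50 by 4-parameter fit.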

| Structure (SMILES) | CC50 at 7 days [1] | EC50 [2] |
| --- | --- | --- |
| Cn1ccc(C(=O)Nc2ccc(F)c(Cl)c2)c1C(F)(F)C(=O)N[C@@H]1CCOC1 [Example 143, (R)-N-(3-chloro-4-fluorophenyl)-2-(1,1-difluoro-2-oxo-2-((tetrahydrofuran-3-yl)amino)ethyl)-1-methyl-1H-pyrrole-3-carboxamide] | > 30 µM | 5 to 30 µM |
| Cn1cc(C(=O)Nc2ccc(F)c(Cl)c2)cc1C(F)(F)C(=O)NOC(C)(C)C [Example 144, 5-(2-(tert-butoxyamino)-1,1-difluoro-2-oxoethyl)-N-(3-chloro-4-fluorophenyl)-1-methyl-1H-pyrrole-3-carboxamide] | > 30 µM | < 5 µM |
| Cn1ccc(C(=O)Nc2ccc(F)c(Cl)c2)c1C(F)(F)C(=O)NOC(C)(C)C [Example 145, 2-(2-(tert-butoxyamino)-1,1-difluoro-2-oxoethyl)-N-(3-chloro-4-fluorophenyl)-1-methyl-1H-pyrrole-3-carboxamide] | > 30 µM | 5 to 30 µM |
| Cn1cc(C(=O)Nc2ccc(F)c(Cl)c2)cc1C(F)(F)C(=O)NC1(C#N)CC1 [Example 146, N-(3-chloro-4-fluorophenyl)-5-(2-((1-cyanocyclopropyl)amino)-1,1-difluoro-2-oxoethyl)-1-methyl-1H-pyrrole-3-carboxamide] | > 30 µM | < 5 µM |
| Cn1ccc(C(=O)Nc2ccc(F)c(Cl)c2)c1C(F)(F)C(=O)NC1(C#N)CC1 [Example 147, N-(3-chloro-4-fluorophenyl)-2-(2-((1-cyanocyclopropyl)amino)-1,1-difluoro-2-oxoethyl)-1-methyl-1H-pyrrole-3-carboxamide] | > 30 µM | 5 to 30 µM |
| Cc1cc(NC(=O)c2ccc(Cl)c(C(F)(F)C(=O)N3CCC(B(O)O)CC3)c2)ccc1F [Example 148, (1-(2-(2-chloro-5-((4-fluoro-3-methylphenyl)carbamoyl)phenyl)-2,2-difluoroacetyl)piperidin-4-yl)boronic acid] | > 30 µM | < 5 µM |
| Cc1cc(NC(=O)c2ccc(F)c(C(F)(F)C(=O)NCB3O[C@@H]4C[C@@H]5C[C@@H](C5(C)C)[C@]4(C)O3)c2)ccc1F [Example 149, 3-(1,1-difluoro-2-oxo-2-((((3aS,4S,6S,7aR)-3a,5,5-trimethylhexahydro-4,6-methanobenzo[d][1,3,2]dioxaborol-2-yl)methyl)amino)ethyl)-4-fluoro-N-(4-fluoro-3-methylphenyl)benzamide] | 5 to 30 µM | < 5 µM |
| Cc1cc(NC(=O)c2ccc(F)c(C(F)(F)C(=O)N[C@H]3CCOB3O)c2)ccc1F [Example 150, (R)-3-(1,1-difluoro-2-((2-hydroxy-1,2-oxaborolan-3-yl)amino)-2-oxoethyl)-4-fluoro-N-(4-fluoro-3-methylphenyl)benzamide] | > 30 µM | < 5 µM |
| Cc1cc(NC(=O)c2ccc(F)c(C(Cl)(Cl)C(=O)N3CC=C(B(O)O)CC3)c2)ccc1F [Example 151, (1-(2,2-dichloro-2-(2-fluoro-5-((4-fluoro-3-methylphenyl)carbamoyl)phenyl)acetyl)-1,2,3,6-tetrahydropyridin-4-yl)boronic acid] | > 30 µM | < 5 µM |
| Cc1cc(NC(=O)c2ccc(F)c(C(F)(F)C(=O)N3CCC(B(O)O)CC3)c2)ccc1F [Example 152, (1-(2,2-difluoro-2-(2-fluoro-5-((4-fluoro-3-methylphenyl)carbamoyl)phenyl)acetyl)piperidin-4-yl)boronic acid] | 5 to 30 µM | < 5 µM |
| Cc1cc(NC(=O)c2ccc(F)c(C(F)(F)C(=O)N3CCC[C@H]3B(O)O)c2)ccc1F [Example 153, (R)-(1-(2,2-difluoro-2-(2-fluoro-5-((4-fluoro-3-methylphenyl)carbamoyl)phenyl)acetyl)pyrrolidin-2-yl)boronic acid] | > 30 µM | < 5 µM |
| Cc1cc(NC(=O)c2ccc(F)c(C(F)(F)C(=O)N3CC=C(B(O)O)CC3)c2)ccc1F [Example 154, (1-(2,2-difluoro-2-(2-fluoro-5-((4-fluoro-3-methylphenyl)carbamoyl)phenyl)acetyl)-1,2,3,6-tetrahydropyridin-4-yl)boronic acid] | 5 to 30 µM | < 5 µM |
| Cc1cc(NC(=O)c2ccc(F)c(C(F)(F)C(=O)NCB(O)O)c2)ccc1F [Example 156, ((2,2-difluoro-2-(2-fluoro-5-((4-fluoro-3-methylphenyl)carbamoyl)phenyl)acetamido)methyl)boronic acid] | 5 to 30 µM | 5 to 30 µM |
| Cc1cc(NC(=O)c2cc(C(F)(F)C(=O)NC(C)(C)C)cs2)ccc1F [Example 157, 4-(2-(tert-butylamino)-1,1-difluoro-2-oxoethyl)-N-(4-fluoro-3-methylphenyl)thiophene-2-carboxamide] | 5 to 30 µM | 5 to 30 µM |
| Cc1cc(NC(=O)c2cc(Br)c(C(F)(F)C(=O)NC(C)(C)C)s2)ccc1F [Example 158, 4-bromo-5-(2-(tert-butylamino)-1,1-difluoro-2-oxoethyl)-N-(4-fluoro-3-methylphenyl)thiophene-2-carboxamide] | 5 to 30 µM | 5 to 30 µM |
| Cc1cc(NC(=O)c2ccc(F)c(C(F)(F)C(=O)N3CCC(O)CC3)c2)cc(F)c1F [Example 159, 3-(1,1-difluoro-2-(4-hydroxypiperidin-1-yl)-2-oxoethyl)-N-(3,4-difluoro-5-methylphenyl)-4-fluorobenzamide] | 5 to 30 µM | < 5 µM |
| Cc1cc(NC(=O)c2ccc(F)c(C(F)(F)C(=O)N3CCC(O)CC3)c2)cc(F)n1 [Example 160, 3-(1,1-difluoro-2-(4-hydroxypiperidin-1-yl)-2-oxoethyl)-4-fluoro-N-(2-fluoro-6-methylpyridin-4-yl)benzamide] | 5 to 30 µM | 5 to 30 µM |
| Cc1cc(NC(=O)c2ccc(F)c(C(F)(F)C(=O)N3CC(F)(F)CC3C(=O)O)c2)ccc1F (centres unmarked) [Example 161, 1-(2,2-difluoro-2-(2-fluoro-5-((4-fluoro-3-methylphenyl)carbamoyl)phenyl)acetyl)-4,4-difluoropyrrolidine-2-carboxylic acid] | > 30 µM | 5 to 30 µM |
| Cc1cc(NC(=O)c2ccc(F)c(C(F)(F)C(=O)N3CCC(O)C(F)C3)c2)ccc1F (centres unmarked) [Example 162, 3-(1,1-difluoro-2-(3-fluoro-4-hydroxypiperidin-1-yl)-2-oxoethyl)-4-fluoro-N-(4-fluoro-3-methylphenyl)benzamide] | 5 to 30 µM | < 5 µM |
| Cc1cc(NC(=O)c2ccc(F)c(C(F)(F)C(=O)N3[C@@H]4CC[C@H]3C[C@H](O)C4)c2)ccc1F [Example 163, 3-(1,1-difluoro-2-((1R,3s,5S)-3-hydroxy-8-azabicyclo[3.2.1]octan-8-yl)-2-oxoethyl)-4-fluoro-N-(4-fluoro-3-methylphenyl)benzamide] | 5 to 30 µM | < 5 µM |
| Cc1cc(NC(=O)c2ccc(F)c(C(F)(F)C(=O)N3CCC(C(N)=O)CC3)c2)ccc1F [Example 164, 1-(2,2-difluoro-2-(2-fluoro-5-((4-fluoro-3-methylphenyl)carbamoyl)phenyl)acetyl)piperidine-4-carboxamide] | > 30 µM | < 5 µM |
| Cc1cc(NC(=O)c2cc(C(F)(F)C(=O)NC(C)(C)C)n(C)n2)ccc1F [Example 165, 5-(2-(tert-butylamino)-1,1-difluoro-2-oxoethyl)-N-(4-fluoro-3-methylphenyl)-1-methyl-1H-pyrazole-3-carboxamide] | > 30 µM | 5 to 30 µM |
| Cc1cc(NC(=O)c2nn(C)cc2C(F)(F)C(=O)NC(C)(C)C)ccc1F [Example 166, 4-(2-(tert-butylamino)-1,1-difluoro-2-oxoethyl)-N-(4-fluoro-3-methylphenyl)-1-methyl-1H-pyrazole-3-carboxamide] | > 30 µM | 5 to 30 µM |
| O=C(Nc1ccnc(Cl)c1)c1ccc(F)c(C(F)(F)C(=O)N2CCC(O)CC2)c1 [Example 167, N-(2-chloropyridin-4-yl)-3-(1,1-difluoro-2-(4-hydroxypiperidin-1-yl)-2-oxoethyl)-4-fluorobenzamide] | 5 to 30 µM | 5 to 30 µM |
| Cc1cc(NC(=O)c2cccc(C(F)(F)C(=O)N3CCC(O)CC3)c2Cl)ccc1F [Example 168, 2-chloro-3-(1,1-difluoro-2-(4-hydroxypiperidin-1-yl)-2-oxoethyl)-N-(4-fluoro-3-methylphenyl)benzamide] | 5 to 30 µM | < 5 µM |
| O=C(Nc1ccc(F)c(Cl)c1)c1ccc(F)c(C(F)(F)C(=O)N2CCC(O)C(F)(F)C2)c1 (centres unmarked) [Example 169, N-(3-chloro-4-fluorophenyl)-3-(2-(3,3-difluoro-4-hydroxypiperidin-1-yl)-1,1-difluoro-2-oxoethyl)-4-fluorobenzamide] | 5 to 30 µM | < 5 µM |
| O=C(Nc1ccc(F)c(Cl)c1)c1ccc(F)c(C(F)(F)C(=O)N2[C@@H]3CC[C@H]2C[C@@H](O)C3)c1 [Example 170, N-(3-chloro-4-fluorophenyl)-3-(1,1-difluoro-2-((1R,3r,5S)-3-hydroxy-8-azabicyclo[3.2.1]octan-8-yl)-2-oxoethyl)-4-fluorobenzamide] | 5 to 30 µM | < 5 µM |
| O=C(Nc1ccc(F)c(Cl)c1)c1ccc(F)c(C(F)(F)C(=O)N2[C@@H]3CC[C@H]2C[C@H](O)C3)c1 [Example 171, N-(3-chloro-4-fluorophenyl)-3-(1,1-difluoro-2-((1R,3s,5S)-3-hydroxy-8-azabicyclo[3.2.1]octan-8-yl)-2-oxoethyl)-4-fluorobenzamide] | 5 to 30 µM | < 5 µM |
